According to PMC10539361, “Allosteric modulation of the fish taste receptor type 1 (T1R) family by the extracellular chloride ion” (Scientific Reports, 2023):
pEC50: −log10 of the molar value.

Legend:
mfT1R2b/mfT1R3 T105E = mfT1R2b/mfT1R3 T105E (Oryzias latipes, UniProt Q2MHK2+Q2MHK4, Q2MHK2:T105E); assay: cell-based; conditions: EC50, [Cl-]o=10 mM; unit inferred
Procedure: (§1) The buffers with lower Cl^− were prepared by progressively replacing NaCl, KCl, CaCl2 and MgCl2 in the buffer with gluconate equivalents[20]. The pH was adjusted to 7.4 with NaOH. Ligands were diluted with the assay buffers at the desired concentrations.
Measurements of the responses of the cells by cell-based assay based on the intracellular Ca^2+ mobilization were carried out as described previously with some modifications[20],[34],[46],[47]. Cell lines stably expressing T1R2, T1R3 and chimeric G-protein α-subunit, G16gust44[48], were constructed using the Flp-In pcDNA5/FRT complete system (Thermo Fisher Scientific, Waltham, MA, USA) described in our previous studies[34],[46]. […] Fluorescence changes (i.e., excitation at 485 nm and emission at 525 nm with a cutoff at 515 nm) were monitored at 2 s intervals. […] The response of each well was determined as ∆RFU (delta relative fluorescent units), which was calculated as (maximum fluorescent value)—(minimum fluorescent value). […] Dose‒response fitting curves were calculated by Prism 9 (GraphPad Software, San Diego, CA) using nonlinear regression (log(agonist) vs. response—variable slope), based on the integrated data from the several independent experiments.

mfT1R2b E260K/mfT1R3 = assay type: cell-based, medaka fish; conditions: 10 mM vs high Cl- buffer
Procedure: as §1
Measurements of the responses of the cells by cell-based assay based on the intracellular Ca^2+ mobilization were carried out as described previously with some modifications[20],[34],[46],[47]. […] The cells were seeded in 96-well plates (clear-bottomed CellBIND surface plate, Corning, Glendale, AZ, USA) coated with ε-poly-L-lysine (Cosmo Bio, Tokyo, Japan) at approximately 70,000 cells per well. After 20 h, the medium was removed and replaced with high Cl^− buffer. […] Fluorescence changes (i.e., excitation at 485 nm and emission at 525 nm with a cutoff at 515 nm) were monitored at 2 s intervals. […] The response of each well was determined as ∆RFU (delta relative fluorescent units), which was calculated as (maximum fluorescent value)—(minimum fluorescent value). […] Dose‒response fitting curves were calculated by Prism 9 (GraphPad Software, San Diego, CA) using nonlinear regression (log(agonist) vs. response—variable slope), based on the integrated data from the several independent experiments.

zfT1R2b/zfT1R3 [1] = target: T1, zfT1R2b/zfT1R3 (Danio rerio, UniProt A0A8M1NDZ5+Q2MHK9); assay: cell-based
T1 sequence (A0A8M1NDZ5 18-823): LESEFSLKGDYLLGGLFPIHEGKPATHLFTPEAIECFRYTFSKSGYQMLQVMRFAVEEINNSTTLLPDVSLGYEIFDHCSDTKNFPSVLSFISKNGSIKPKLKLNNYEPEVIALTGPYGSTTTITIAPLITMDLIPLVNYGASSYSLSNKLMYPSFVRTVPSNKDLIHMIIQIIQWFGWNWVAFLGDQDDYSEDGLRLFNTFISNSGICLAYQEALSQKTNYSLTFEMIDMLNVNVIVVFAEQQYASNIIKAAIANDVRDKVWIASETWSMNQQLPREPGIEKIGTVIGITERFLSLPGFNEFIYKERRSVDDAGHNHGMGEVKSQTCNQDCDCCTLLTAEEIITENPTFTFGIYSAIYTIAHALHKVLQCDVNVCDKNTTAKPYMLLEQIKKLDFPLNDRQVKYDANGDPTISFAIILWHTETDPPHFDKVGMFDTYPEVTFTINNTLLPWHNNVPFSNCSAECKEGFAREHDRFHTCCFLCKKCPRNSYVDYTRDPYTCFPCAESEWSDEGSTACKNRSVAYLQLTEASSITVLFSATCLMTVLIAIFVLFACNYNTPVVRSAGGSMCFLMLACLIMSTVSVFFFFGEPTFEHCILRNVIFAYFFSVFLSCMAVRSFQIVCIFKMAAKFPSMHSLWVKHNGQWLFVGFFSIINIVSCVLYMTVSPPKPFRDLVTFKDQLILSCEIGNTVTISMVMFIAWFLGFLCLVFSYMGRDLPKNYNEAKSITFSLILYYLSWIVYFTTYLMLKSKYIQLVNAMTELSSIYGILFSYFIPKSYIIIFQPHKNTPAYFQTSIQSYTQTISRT
T1 sequence (Q2MHK9 25-850): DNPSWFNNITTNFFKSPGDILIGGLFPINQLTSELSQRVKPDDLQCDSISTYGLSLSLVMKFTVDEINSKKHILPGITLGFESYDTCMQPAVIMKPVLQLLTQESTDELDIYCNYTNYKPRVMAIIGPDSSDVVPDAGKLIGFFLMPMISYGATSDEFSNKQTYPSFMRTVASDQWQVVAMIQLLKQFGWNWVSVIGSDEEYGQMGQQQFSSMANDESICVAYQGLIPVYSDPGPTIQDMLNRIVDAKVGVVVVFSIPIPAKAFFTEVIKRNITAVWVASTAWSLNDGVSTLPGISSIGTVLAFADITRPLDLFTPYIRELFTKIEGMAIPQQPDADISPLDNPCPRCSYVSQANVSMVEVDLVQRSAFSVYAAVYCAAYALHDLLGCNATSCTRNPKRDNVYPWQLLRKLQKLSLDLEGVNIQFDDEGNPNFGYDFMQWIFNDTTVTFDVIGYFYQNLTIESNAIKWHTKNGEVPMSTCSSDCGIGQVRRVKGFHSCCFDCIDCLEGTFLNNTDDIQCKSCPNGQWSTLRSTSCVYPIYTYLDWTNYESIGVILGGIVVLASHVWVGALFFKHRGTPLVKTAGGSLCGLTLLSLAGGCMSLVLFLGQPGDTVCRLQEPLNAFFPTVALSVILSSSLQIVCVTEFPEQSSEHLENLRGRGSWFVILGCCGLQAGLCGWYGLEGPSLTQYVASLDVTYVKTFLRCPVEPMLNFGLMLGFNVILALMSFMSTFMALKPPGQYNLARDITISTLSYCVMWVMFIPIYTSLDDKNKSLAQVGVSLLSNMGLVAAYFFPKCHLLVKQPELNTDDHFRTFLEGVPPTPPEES
Procedure: as §1
Measurements of the responses of the cells by cell-based assay based on the intracellular Ca^2+ mobilization were carried out as described previously with some modifications[20],[34],[46],[47]. […] The cells were seeded in 96-well plates (clear-bottomed CellBIND surface plate, Corning, Glendale, AZ, USA) coated with ε-poly-L-lysine (Cosmo Bio, Tokyo, Japan) at approximately 70,000 cells per well. After 20 h, the medium was removed and replaced with high Cl^− buffer. After 3 h 30 min incubation at 27 °C, cells were loaded with 5 µM calcium-indicator dye Fluo-8 AM (AAT Bioquest, Sunnyvale, CA, USA) diluted in high Cl^− buffer. After incubation for 30 min at 27 °C, the cells were washed with buffers containing appropriate concentrations of Cl^−. The cellular assay was initiated after 3–5 min of resting and was completed within 5 min. The measurements were made using FlexStation 3 (Molecular Devices, Sunnyvale, CA, USA) at 27 °C. Fluorescence changes (i.e., excitation at 485 nm and emission at 525 nm with a cutoff at 515 nm) were monitored at 2 s intervals. A 100-µL aliquot of assay buffer supplemented with 2 × ligands was added at 20 s, and scanning was continued for an additional 40 s. The response of each well was determined as ∆RFU (delta relative fluorescent units), which was calculated as (maximum fluorescent value)—(minimum fluorescent value). […] Such normalized data from more than three independent experiments are reported as the mean ± standard error of the mean (SEM). Dose‒response fitting curves were calculated by Prism 9 (GraphPad Software, San Diego, CA) using nonlinear regression (log(agonist) vs. response—variable slope), based on the integrated data from the several independent experiments.

zfT1R2b/zfT1R3 [2] = target: T1, zfT1R2b/zfT1R3; assay: Effect of anions, cations and osmotic pressure on cellular responses, cells in 10 mM Cl- buffer, zfT1R2b/zfT1R3; assay type: cell-based, zebrafish; conditions: coapplied with 2 mM L-Ala, increasing salt concentration
Procedure: Cells were seeded in 96-well plates coated with ε-poly-L-lysine at approximately 70,000 cells per well. […] Fluorescence changes were monitored at 2 s intervals, as described above. […] Three independent experiments were conducted for each receptor, and representative results are shown as the mean ± SEM (n = 3 replicates). Statistical tests were conducted using KyPlot version 6.0 (KyensLab Inc., Tokyo, Japan). Statistical significance was set at p < 0.05.

mfT1R2b/mfT1R3 T105E, sequence (Q2MHK2 entry or part of it T105E): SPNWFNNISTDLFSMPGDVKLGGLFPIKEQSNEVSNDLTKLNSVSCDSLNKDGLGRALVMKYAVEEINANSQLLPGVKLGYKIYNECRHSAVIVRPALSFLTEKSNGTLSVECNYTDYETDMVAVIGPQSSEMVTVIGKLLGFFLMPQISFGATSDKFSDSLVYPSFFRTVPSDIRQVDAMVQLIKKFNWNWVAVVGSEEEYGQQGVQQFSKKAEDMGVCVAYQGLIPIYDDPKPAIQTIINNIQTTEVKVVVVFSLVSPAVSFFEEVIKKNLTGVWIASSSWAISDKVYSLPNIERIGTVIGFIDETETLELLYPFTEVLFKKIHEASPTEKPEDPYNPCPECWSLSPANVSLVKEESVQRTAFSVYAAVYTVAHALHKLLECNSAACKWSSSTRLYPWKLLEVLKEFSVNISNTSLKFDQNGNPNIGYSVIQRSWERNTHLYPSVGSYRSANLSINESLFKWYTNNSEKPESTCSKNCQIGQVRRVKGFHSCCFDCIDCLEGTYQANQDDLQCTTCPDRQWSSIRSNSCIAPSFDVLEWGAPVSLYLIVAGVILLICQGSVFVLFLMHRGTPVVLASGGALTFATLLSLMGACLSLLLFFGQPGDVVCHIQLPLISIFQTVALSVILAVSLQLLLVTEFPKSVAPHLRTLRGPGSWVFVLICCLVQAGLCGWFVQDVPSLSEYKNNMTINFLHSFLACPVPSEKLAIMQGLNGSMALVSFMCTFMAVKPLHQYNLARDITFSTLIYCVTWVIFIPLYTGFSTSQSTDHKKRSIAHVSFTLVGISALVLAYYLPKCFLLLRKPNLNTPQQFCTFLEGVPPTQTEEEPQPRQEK
mfT1R2b/mfT1R3 T105E, sequence (Q2MHK4 entry or part of it): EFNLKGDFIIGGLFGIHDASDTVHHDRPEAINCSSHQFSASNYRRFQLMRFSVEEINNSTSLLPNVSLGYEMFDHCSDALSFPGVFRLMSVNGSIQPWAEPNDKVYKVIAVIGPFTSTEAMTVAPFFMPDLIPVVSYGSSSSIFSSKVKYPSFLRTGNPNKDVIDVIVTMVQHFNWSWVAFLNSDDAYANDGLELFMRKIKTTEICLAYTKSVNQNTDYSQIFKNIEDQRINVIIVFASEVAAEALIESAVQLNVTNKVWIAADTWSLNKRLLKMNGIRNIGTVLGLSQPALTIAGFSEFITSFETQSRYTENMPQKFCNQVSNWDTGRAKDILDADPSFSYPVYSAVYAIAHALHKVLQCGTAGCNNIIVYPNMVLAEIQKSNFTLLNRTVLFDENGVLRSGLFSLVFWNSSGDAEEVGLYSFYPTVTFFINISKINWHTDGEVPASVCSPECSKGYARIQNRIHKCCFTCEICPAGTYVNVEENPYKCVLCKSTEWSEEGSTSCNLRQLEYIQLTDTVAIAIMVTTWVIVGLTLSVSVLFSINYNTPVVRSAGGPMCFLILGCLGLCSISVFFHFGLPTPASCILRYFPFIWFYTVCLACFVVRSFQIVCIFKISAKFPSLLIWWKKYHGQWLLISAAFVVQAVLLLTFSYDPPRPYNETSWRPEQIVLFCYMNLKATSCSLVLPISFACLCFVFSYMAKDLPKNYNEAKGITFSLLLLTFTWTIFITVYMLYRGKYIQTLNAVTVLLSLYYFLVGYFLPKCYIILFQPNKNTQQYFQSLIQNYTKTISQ

SMILES	pEC50 (mfT1R2b/mfT1R3 T105E)	effect of [Cl-]o on sensitivity (mfT1R2b E260K/mfT1R3)	pEC50 (zfT1R2b/zfT1R3 [1])	response to fixed concentration of L-Ala on coapplication (zfT1R2b/zfT1R3 [2])
C[C@H](N)C(=O)O [L-Ala, L-alanine]	1.94	hardly affected	2.54	–
[Cl-].[Na+] [NaCl]	–	–	–	decreased
